Measurements published in article PMC9250534, “Synthesis and direct assay of large macrocycle diversities by combinatorial late-stage modification at picomole scale” (Nature Communications, 2022).
Numbered stars: 1 amine (or outer) side, 2 acyl side, 3 side chain; on linkers, the order of the positions; unused ones are H or OH. Bridge positions count the residues as written; N and C are the ends. Square brackets hold non-standard residues; d marks the D form. Peptide text beside a SMILES is read from it. * marks the point of attachment. ξ: configuration not given here. ξPro(4-NHCO(5-Cl-2-thienyl)) = O=C(NC1CNC(C(=O)O)C1)c1ccc(Cl)s1; 2Thenoyl(5-Cl) = O=C(c1ccc(Cl)s1)*; Cysteamide = C(CS[*:3])N[*:1]; Api = NC1(C(=O)O)CCNCC1; Mpa = O=C(O)CCS

Target: T1, thrombin (Homo sapiens, UniProt P00734)
T1 construct: consists of two polypeptide chains of 36 (light chain) and 259 amino acid
Experiment: Thrombin inhibition screen of crude macrocycle reactions (residual thrombin activity, fluorogenic substrate Z-Gly-Gly-Arg-AMC)
Type: biochemical
Details: 10 µM macrocycle concentration, macrocycles containing acid 14, crude reaction; for % thrombin activity, Repeat screen: replicate reaction and screen
Method in brief: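 Residual activity was measured as the AMC release rate after adding 50 μM Z-Gly-Gly-Arg-AMC. This followed a 10-min room-temperature preincubation of 2 nM thrombin with 10 μM single macrocycles in pH 7.4 Tris buffer (0.6% DMSO). Percent inhibition was taken against the mean slope of DMSO controls.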

| SMILES | % thrombin activity, Original screen [%] | % thrombin activity, Repeat screen [%] |
| --- | --- | --- |
| O=C1CCSSCCNC(=O)C2CC(NC(=O)c3ccc(Cl)s3)CN2C(=O)CCNC(=O)C(CO)N1 (stereo not shown) [X S B2 D5] | 96.6 | 90.6 |
| CC(C)C1NC(=O)CCSSCCNC(=O)C(CNC(=O)c2ccc(Cl)s2)NC(=O)C2CCCN(C2)C1=O (stereo not shown) [X V B4 D3] | 75.0 | 73.4 |
| O=C1CCSSCCNC(=O)C2(CCN(C(=O)c3ccc(Cl)s3)CC2)NC(=O)[C@@H]2CCCN2C(=O)[C@H](Cc2c[nH]c3ccccc23)N1 [X W B1 D6] ([Mpa]WP[Api](2Thenoyl(5-Cl))-Cysteamide; disulfide 1-C) | 105.0 | 113.7 |
| O=C1CCSSCCNC(=O)[C@@H](CNC(=O)c2ccc(Cl)s2)NC(=O)[C@H]2CCCN(C2)C(=O)[C@H](Cc2c[nH]c3ccccc23)N1 [X W B4 D4] | 108.0 | 112.0 |
| O=C1CCSSCCNC(=O)[C@@H](CNC(=O)c2ccc(Cl)s2)NC(=O)c2cccc(c2)CNC(=O)[C@H](Cc2c[nH]c3ccccc23)N1 [X W B5 D4] | 103.8 | 106.8 |
| O=C1CCSSCCNC(=O)[C@H](CNC(=O)c2ccc(Cl)s2)NC(=O)C2(CC2)CNC(=O)[C@H](Cc2c[nH]c3ccccc23)N1 [X W B6 D3] | 65.4 | 56.1 |
| O=C1CCSSCCNC(=O)C2CCCN2C(=O)C2CC(NC(=O)c3ccc(Cl)s3)CN2C(=O)C(Cc2c[nH]c3ccccc23)N1 (stereo not shown) [X W D5 B1] ([Mpa]W[ξPro(4-NHCO(5-Cl-2-thienyl))]P-Cysteamide; disulfide 1-C; configuration not given here) | 113.1 | 119.4 |
| O=C1CCSSCCNC(=O)C2CCCN(C2)C(=O)C(CCCCNC(=O)c2ccc(Cl)s2)NC(=O)C(Cc2ccc(O)cc2)N1 (stereo not shown) [X Y D1 B4] | 97.9 | 97.0 |
| O=C1CCSSCCNC(=O)C2CCCN2C(=O)C2CC(NC(=O)c3ccc(Cl)s3)CN2C(=O)C(Cc2ccc(O)cc2)N1 (stereo not shown) [X Y D5 B1] ([Mpa]Y[ξPro(4-NHCO(5-Cl-2-thienyl))]P-Cysteamide; disulfide 1-C; configuration not given here) | 92.3 | 97.0 |
| CC1NC(=O)CCSSCCNC(=O)C(CCCCNC(=O)c2ccc(Cl)s2)NC(=O)C2CCCN2C1=O (stereo not shown) [X a B1 D1] ([Mpa]APK(2Thenoyl(5-Cl))-Cysteamide; disulfide 1-C; configuration not given here) | 106.8 | 115.5 |
| C[C@H]1NC(=O)CCSSCCNC(=O)[C@H](CCCCNC(=O)c2ccc(Cl)s2)NC(=O)CCNC1=O [X a B2 D1] | 95.2 | 101.4 |
| C[C@H]1NC(=O)CCSSCCNC(=O)[C@H]2CCCN(C2)C(=O)[C@H](CCCCNC(=O)c2ccc(Cl)s2)NC1=O [X a D1 B4] | 107.0 | 109.1 |
| CC1NC(=O)CCSSCCNC(=O)c2cccc(c2)CNC(=O)C(CCCCNC(=O)c2ccc(Cl)s2)NC1=O (stereo not shown) [X a D1 B5] | 102.5 | 104.4 |
| CC1NC(=O)CCSSCCNC(=O)C2CCCN(C2)C(=O)C(CNC(=O)c2ccc(Cl)s2)NC1=O (stereo not shown) [X a D3 B4] | 97.7 | 98.7 |
